# Measurements reported in patent US20200299306A1, “COMPOUNDS WITH A BENZO[A]CARBAZOLE STRUCTURE AND USE THEREOF” (UNIVERSITA' DI PISA, priority 2017, published 2020).
# Test system: U343MG
# Assay: Effect on cell apoptosis (U343MG)
# Assay type: cell-based, human
# Conditions: FIG. 7 and FIG. 8
# Experimental: 8) Effect of RM37 on cell apoptosis (U343MG; 1,2). […] The results are set out in FIG. 7 and FIG. 8.
row,Structure (SMILES),Effect on cell apoptosis
1,"CC(=O)OCC1=C(C(=O)OC(C)(C)C)N2C(=O)[C@@H](NC(=O)COc3ccc4c(c3)CCc3c-4[nH]c4ccc(F)cc34)[C@H]2SC1 [RM37, (6R, 7R)-tert-butyl-7-(2-(8-fluoro-6,11-dihydro-5H-benzo[a]carbazol-3-yloxy)acetamido)-3-(acetoxymethyl)-8-oxo-5-thia-1-azabicyclo[4.2.0]oct-2-ene-2-carboxylate]",induces cell apoptosis

# Test system: U343MG
# Assay: Effect on cell cycle (U343MG)
# Assay type: cell-based, human
# Conditions: FIG. 6
# Experimental: 7) Effect of RM37 on cell cycle (U343MG; 1,2). […] The results are set out in FIG. 6.
row,Structure (SMILES),Effect on cell cycle
1,"CC(=O)OCC1=C(C(=O)OC(C)(C)C)N2C(=O)[C@@H](NC(=O)COc3ccc4c(c3)CCc3c-4[nH]c4ccc(F)cc34)[C@H]2SC1 [RM37, (6R, 7R)-tert-butyl-7-(2-(8-fluoro-6,11-dihydro-5H-benzo[a]carbazol-3-yloxy)acetamido)-3-(acetoxymethyl)-8-oxo-5-thia-1-azabicyclo[4.2.0]oct-2-ene-2-carboxylate]",blocks the cell cycle in G1

# Target: T1, p53/MDM2 complex (Homo sapiens, UniProt Q00987)
# T1 construct: Test performed on cell lysate of human glioblastoma (GBM) cells U343MG; endogenous in cells; host or cells: U343MG human glioblastoma cells (lysate)
# Assay: Inhibitory effect on p53/MDM2 complex binding, cell lysate of human glioblastoma U343MG cells
# Conditions: 10 uM; cell lysate of human glioblastoma (GBM) cells U343MG; read-out: % inhibition at 10 uM of p53/MDM2 complex binding
# Experimental: Test performed on cell lysate of human glioblastoma (GBM) cells U343MG (1,2).
# T1 sequence (Q00987 whole entry, one chain of several): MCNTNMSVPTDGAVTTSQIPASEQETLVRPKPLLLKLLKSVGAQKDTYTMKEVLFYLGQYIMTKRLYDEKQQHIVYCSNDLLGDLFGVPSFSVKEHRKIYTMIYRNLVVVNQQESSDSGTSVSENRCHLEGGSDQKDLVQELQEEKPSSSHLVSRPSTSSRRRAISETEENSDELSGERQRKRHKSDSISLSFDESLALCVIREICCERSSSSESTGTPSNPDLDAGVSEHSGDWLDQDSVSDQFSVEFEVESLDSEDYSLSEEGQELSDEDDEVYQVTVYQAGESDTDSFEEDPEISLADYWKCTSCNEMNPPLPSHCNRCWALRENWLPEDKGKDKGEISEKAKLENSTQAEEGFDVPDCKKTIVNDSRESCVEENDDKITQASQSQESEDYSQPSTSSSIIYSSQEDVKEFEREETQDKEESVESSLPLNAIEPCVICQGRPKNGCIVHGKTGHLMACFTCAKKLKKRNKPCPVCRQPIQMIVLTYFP
row,inhibition at 10 µM [%],Structure (SMILES)
1,22,CCNC(=O)COc1ccc2c(c1)S(=O)(=O)Cc1c-2[nH]c2ccc(F)cc12 [RA13]
2,< 5,COc1ccc2c(c1)-c1[nH]c3ccc(Cl)cc3c1CO2 [RA16]
3,58,CN(C)CCCn1c2ccc(Cl)cc2c2ccc3cc(OCC(=O)O)ccc3c21 [RM58]
4,< 5,Clc1ccc2[nH]c3c(c2c1)COc1ccccc1-3 [RA15]

row,Structure (SMILES),inhibition at 10 µM [%]
1,"CC(=O)OCC1=C(C(=O)O)N2C(=O)[C@@H](NC(=O)COc3ccc4c(c3)CCc3c-4[nH]c4ccc(F)cc34)[C@H]2SC1 [RM53, (6R,7R)-7-(2-[(8-fluoro-6,11-dihydro-5H-benzo[a]carbazol-3-yl)oxy]acetamido)-3-(acetoxymethyl)-8-oxy-5-thia-1-azabicyclo[4.2.0]oct-2-ene-2-carboxylic acid]",< 5

# Same assay, conditions: cell lysate of human glioblastoma (GBM) cells U343MG
row,IC50 [nM],Structure (SMILES)
1,222 ± 210,CC(=O)OCC1=C(C(=O)OC(C)(C)C)N2C(=O)C(NC(=O)COc3ccc4c(c3)/C(=N\O)Cc3c-4[nH]c4ccc(F)cc34)C2SC1 (stereo not shown) [RM38]
2,232 ± 200,CC(=O)OCC1=C(C(=O)OC(C)(C)C)N2C(=O)C(NC(=O)COc3ccc4c(c3)C(=O)Cc3c-4[nH]c4ccc(C(F)(F)F)cc34)C2SC1 (stereo not shown) [RM39]
3,2700 ± 120,CCOC(=O)/C(COc1ccc2c(ccc3c4cc(Cl)ccc4n(CCCN(C)C)c23)c1)=N/OC [RM66]
4,228 ± 16,COc1ccc(COC(=O)C2N3C(=O)C(NC(=O)COc4ccc5c(c4)S(=O)(=O)CCc4c-5[nH]c5ccc(F)cc45)C3SC2(C)C)cc1 (stereo not shown) [RM43]
5,195 ± 22,CC(=O)OCC1=C(C(=O)OC(C)(C)C)N2C(=O)C(NC(=O)COc3ccc4c(c3)CCc3c-4[nH]c4ccc(Br)cc34)C2SC1 (stereo not shown) [RM47]
6,280 ± 20,CC(=O)OCC1=C(C(=O)OC(C)(C)C)N2C(=O)C(NC(=O)COc3ccc4c(c3)CCc3c-4[nH]c4ccc(Cl)cc34)C2SC1 (stereo not shown) [RM36]

# The next lines start with the molecule.
row,Structure (SMILES),IC50 [nM]
1,CCOC(=O)CO/N=C1/Cc2c([nH]c3ccc(F)cc23)-c2ccc(OCC(=O)NC3C(=O)N4C(C(=O)OC(C)(C)C)=C(COC(C)=O)CSC34)cc21 (stereo not shown) [RA37],180 ± 150
2,CCNC(=O)CO/N=C1/Cc2c([nH]c3ccc(F)cc23)-c2ccc(OCC(=O)NC3C(=O)N4C3SC(C)(C)C4C(=O)OCc3ccc(OC)cc3)cc21 (stereo not shown) [RA29],100 ± 30
3,CCNC(=O)C(CCCNC(=O)OCc1ccccc1)NC(=O)CC1C(NC(=O)COc2ccc3c(c2)S(=O)(=O)Cc2c-3[nH]c3ccc(F)cc23)C(=O)N1CC(=O)OCc1ccc(OC)cc1 (stereo not shown) [RA30],150 ± 10
4,CC(=O)OCC1=C(C(=O)OC(C)(C)C)N2C(=O)C(NC(=O)COc3ccc4c(c3)S(=O)(=O)Nc3c-4[nH]c4ccc(F)cc34)C2SC1 (stereo not shown) [RA36],220 ± 100
5,CC(=O)OCC1=C(C(=O)OC(C)(C)C)N2C(=O)[C@@H](NC(=O)COc3ccc4c(c3)CCc3c-4[nH]c4cc([N+](=O)[O-])ccc34)[C@H]2SC1 [GA09b],225 ± 20
6,CNC(=O)C(CCCNC(=O)OCc1ccccc1)NC(=O)COc1ccc2c(c1)NCc1c-2[nH]c2ccc(F)cc12 (stereo not shown) [RA20],1550 ± 250
7,CNC(=O)C(CCCNC(=O)OCc1ccccc1)NC(=O)COc1ccc2c(c1)OCc1c-2[nH]c2ccc(F)cc12 (stereo not shown) [RA18],1350 ± 150
8,CC(C)(C)OC(=O)C1N2C(=O)C(NC(=O)COc3ccc4c(c3)S(=O)(=O)NCc3c-4[nH]c4ccc(F)cc34)C2SC1(C)C (stereo not shown) [RA42],292 ± 25
9,CCNC(=O)C(CCCNC(=O)OCc1ccccc1)NC(=O)CC1C(NC(=O)COc2ccc3c(c2)S(=O)(=O)NCc2c-3[nH]c3ccc(F)cc23)C(=O)N1CC(=O)OCc1ccc(OC)cc1 (stereo not shown) [RA44],223 ± 22
10,COc1ccc(COC(=O)C2N3C(=O)C(NC(=O)COc4ccc5c(c4)OCc4c-5[nH]c5ccc(Br)cc45)C3SC2(C)C)cc1 (stereo not shown) [RA35],375 ± 22
11,CC(=O)OCC1=C(C(=O)OC(C)(C)C)N2C(=O)C(NC(=O)COc3ccc4c(c3)S(=O)(=O)NCc3c-4[nH]c4ccc(F)cc34)C2SC1 (stereo not shown) [RA40],197 ± 124
12,O=C(COc1ccc2c(c1)S(=O)(=O)CCc1c-2[nH]c2ccc(F)cc12)NCc1ccc(F)c(F)c1 [RA1],920 ± 20
13,CC(=O)OCC1=C(C(=O)OC(C)(C)C)N2C(=O)C(NC(=O)COc3ccc4c(c3)OCc3c-4[nH]c4ccc(F)cc34)C2S(=O)(=O)C1 (stereo not shown) [RA31],120 ± 45
14,CN(C)C(=O)C(CCCNC(=O)OCc1ccccc1)NC(=O)COc1ccc2c(c1)S(=O)(=O)NCc1c-2[nH]c2ccc(F)cc12 (stereo not shown) [RA3],620 ± 50
15,COc1ccc2[nH]c3c(c2c1)CCCc1cc(OCC(=O)O)ccc1-3 [RA2],2900 ± 120
16,CNC(=O)C(CCCNC(=O)OCc1ccccc1)NC(=O)COc1ccc2c(c1)OCc1c-2[nH]c2ccc(OCC(=O)NC(CCc3ccccc3)C(=O)N(C)C)cc12 (stereo not shown) [RA19],450 ± 15
17,"CC(=O)OCC1=C(C(=O)OC(C)(C)C)N2C(=O)[C@@H](NC(=O)COc3ccc4c(c3)CCc3c-4[nH]c4ccc(F)cc34)[C@H]2SC1 [RM37, (6R, 7R)-tert-butyl-7-(2-(8-fluoro-6,11-dihydro-5H-benzo[a]carbazol-3-yloxy)acetamido)-3-(acetoxymethyl)-8-oxo-5-thia-1-azabicyclo[4.2.0]oct-2-ene-2-carboxylate]",222 ± 44
18,CC(=O)OCC1=C(C(=O)OC(C)(C)C)N2C(=O)C(NC(=O)COc3ccc4c(c3)S(=O)(=O)Cc3c-4[nH]c4ccc(F)cc34)C2SC1 (stereo not shown) [RA25],143 ± 16
19,CC(=O)OCC1=C(C(=O)OC(C)(C)C)N2C(=O)[C@@H](NC(=O)COc3ccc4c(c3)CCc3c-4[nH]c4cccc([N+](=O)[O-])c34)[C@H]2SC1 [GA09a],650 ± 50
20,COc1cc2c(cc1OC)-c1c(c3c(N)cccc3n1CCCN(C)C)CCC2 [GA17M8],12700 ± 1500
21,COc1ccc(COC(=O)C2N3C(=O)C(NC(=O)COc4ccc5c(c4)S(=O)(=O)Nc4c-5[nH]c5ccc(Br)cc45)C3SC2(C)C)cc1 (stereo not shown) [RA26],120 ± 90

# Same assay, conditions: read-out: % inhibition at 10 uM of p53/MDM2 complex binding
row,Structure (SMILES),inhibition at 10 µM [%]
1,COC(=O)C(NC(=O)COc1ccc2c(ccc3c4cc(Cl)ccc4n(CCCN(C)C)c23)c1)c1ccccc1 (stereo not shown) [RM85],82

# Test system: p53
# Assay: Stabilisation of p53 (U343MG)
# Assay type: cell-based, human
# Conditions: due to reduction of p53 bonded to MDM2, not mRNA induction, FIG. 1
row,Structure (SMILES),Stabilisation of p53
1,"CC(=O)OCC1=C(C(=O)OC(C)(C)C)N2C(=O)[C@@H](NC(=O)COc3ccc4c(c3)CCc3c-4[nH]c4ccc(F)cc34)[C@H]2SC1 [RM37, (6R, 7R)-tert-butyl-7-(2-(8-fluoro-6,11-dihydro-5H-benzo[a]carbazol-3-yloxy)acetamido)-3-(acetoxymethyl)-8-oxo-5-thia-1-azabicyclo[4.2.0]oct-2-ene-2-carboxylate]",stabilisation of p53

# Test system: protein p53
# Assay: Stabilisation of intracellular levels of protein p53 (343MG)
# Assay type: cell-based, human
# Conditions: U343MG; FIG. 3
# Source text: 1) Costa, B; Grillone, A F; Salvetti, A; Rocchiccioli, S; Iacopetti, P; Daniele, S; Da Pozzo, E; Campiglia, P; Novellino, E; Martini, C; Rossi, L An antibody-free strategy for screening putative HDM2 inhibitors using crude bacterial lysates expressing GST-HDM2 recombinant protein Drug Testing and Analysis (2013), 5, 7, 596-601.
# 2) Costa B, Bendinelli S, Gabelloni P, Da Pozzo E, Daniele S, et al. Human Glioblastoma Multiforme: p53 Reactivation by a Novel MDM2 Inhibitor. PLoS ONE (2013) 8(8): e72281. doi:10.1371/journal.pone.0072281.
# The results are set out in FIG. 3.
row,Structure (SMILES),Stabilisation of intracellular levels of protein p53
1,"CC(=O)OCC1=C(C(=O)OC(C)(C)C)N2C(=O)[C@@H](NC(=O)COc3ccc4c(c3)CCc3c-4[nH]c4ccc(F)cc34)[C@H]2SC1 [RM37, (6R, 7R)-tert-butyl-7-(2-(8-fluoro-6,11-dihydro-5H-benzo[a]carbazol-3-yloxy)acetamido)-3-(acetoxymethyl)-8-oxo-5-thia-1-azabicyclo[4.2.0]oct-2-ene-2-carboxylate]",stabilises the intracellular levels of protein p53
